Activity calls are given as the source filed them.
What was measured:
Cytochrome P450 2C19 = Cytochrome P450 2C19 (Homo sapiens, UniProt P33261); assay: Cytochrome panel assay with activity outcomes. Panel member name: p450-cyp2c19 Compounds with AC50 equal or less than 10 uM are considered active; assay type: functional
Cytochrome P450 2C9 = Cytochrome P450 2C9 (Homo sapiens, UniProt P11712)
Cytochrome P450 1A2 = target: T1, Cytochrome P450 1A2 (Homo sapiens, UniProt P05177);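 note: PubChem cytochrome P450 panel assay, CYP1A2 panel member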
T1 sequence (P05177 whole entry): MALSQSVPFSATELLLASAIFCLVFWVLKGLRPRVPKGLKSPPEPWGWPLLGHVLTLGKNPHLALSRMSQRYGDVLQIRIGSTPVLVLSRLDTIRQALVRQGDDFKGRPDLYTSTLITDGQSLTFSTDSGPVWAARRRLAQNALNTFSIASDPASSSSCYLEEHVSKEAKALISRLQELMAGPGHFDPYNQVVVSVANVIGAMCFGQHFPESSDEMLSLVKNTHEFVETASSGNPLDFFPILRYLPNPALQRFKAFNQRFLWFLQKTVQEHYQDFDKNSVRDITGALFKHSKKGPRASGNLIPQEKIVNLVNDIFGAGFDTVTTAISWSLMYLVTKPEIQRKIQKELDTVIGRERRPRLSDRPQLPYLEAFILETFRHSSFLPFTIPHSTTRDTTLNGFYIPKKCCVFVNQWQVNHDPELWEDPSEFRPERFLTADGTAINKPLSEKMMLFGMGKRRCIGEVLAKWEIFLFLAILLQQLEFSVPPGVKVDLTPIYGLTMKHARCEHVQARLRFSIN

Streptokinase A = target: T2, Streptokinase A (Streptococcus pyogenes serotype M1, UniProt P10520); assay: S. pyogenes streptokinase expression inhibitors, potency, dose response, plasminogen activation absorbance, OD405 (AID 1914); assay type: functional, Streptococcus pyogenes M1 GAS;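 note: secreted streptokinase activity via plasminogen activation per viability signal from cell pellet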
T2 sequence (P10520 whole entry): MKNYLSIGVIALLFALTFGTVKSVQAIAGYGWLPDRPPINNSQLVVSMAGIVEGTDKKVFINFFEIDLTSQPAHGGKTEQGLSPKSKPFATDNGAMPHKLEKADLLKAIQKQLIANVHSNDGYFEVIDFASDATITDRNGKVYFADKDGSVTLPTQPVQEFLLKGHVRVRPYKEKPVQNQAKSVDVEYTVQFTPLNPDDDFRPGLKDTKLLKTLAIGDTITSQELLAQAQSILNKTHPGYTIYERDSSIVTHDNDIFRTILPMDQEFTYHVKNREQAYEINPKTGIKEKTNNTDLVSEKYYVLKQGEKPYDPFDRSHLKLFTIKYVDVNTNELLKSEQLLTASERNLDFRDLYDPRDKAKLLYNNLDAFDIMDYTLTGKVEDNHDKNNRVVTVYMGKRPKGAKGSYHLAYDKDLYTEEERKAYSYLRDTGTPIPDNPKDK

Streptococcus = assay: Group A Streptococcus viability loss, dose response, counter-screen for streptokinase expression inhibitor project, luminescence, BacTiterGlo (AID 1915); assay type: functional, organism-based;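 note: potency for reduction of bacterial viability or growth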
[1] = system: Streptococcus sp. 'group A'; assay: growth inhibition of control SK(-) GAS strain, dose response, counter-screen for streptokinase expression inhibitor project, luminescence, kanamycin, BacTiterGlo, confirmation (AID 1900); assay type: functional, organism-based
[2] = inhibitors of intracellular T. cruzi replication, confirmation, NIH3T3 host cells, beta-gal luminescence (AID 2044); assay type: functional, cell-based;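 note: intracellular parasites grown in NIH/3T3 mouse fibroblasts as host cells; luminescent beta-galactosidase reporter signal from transgenic T. cruzi replicating inside host cells; inhibitors lower the luminescence signal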
[3] = cytotoxicity toward NIH3T3 fibroblasts, dose response, counter-screen, cell-based, ATP luminescence, mouse fibroblasts (AID 2010); assay type: functional;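 note: cells exposed to compound for about 90 hours before reading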

Chain of Cytochrome P450 2C9 (P11712 whole entry): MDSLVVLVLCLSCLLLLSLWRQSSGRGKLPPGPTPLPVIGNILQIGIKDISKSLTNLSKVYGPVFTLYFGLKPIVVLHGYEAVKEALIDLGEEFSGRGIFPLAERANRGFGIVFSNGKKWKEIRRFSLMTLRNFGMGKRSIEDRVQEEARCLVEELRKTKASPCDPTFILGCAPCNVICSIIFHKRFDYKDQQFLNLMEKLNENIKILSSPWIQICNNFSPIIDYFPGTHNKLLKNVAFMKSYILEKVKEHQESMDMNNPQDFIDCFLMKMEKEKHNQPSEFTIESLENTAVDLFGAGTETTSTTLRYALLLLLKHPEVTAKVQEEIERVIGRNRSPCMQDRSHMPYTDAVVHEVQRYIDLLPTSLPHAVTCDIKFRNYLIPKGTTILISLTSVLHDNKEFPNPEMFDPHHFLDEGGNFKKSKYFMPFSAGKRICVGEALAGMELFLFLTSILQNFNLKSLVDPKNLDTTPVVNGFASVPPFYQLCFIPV
Chain of Cytochrome P450 2C19 (P33261 whole entry): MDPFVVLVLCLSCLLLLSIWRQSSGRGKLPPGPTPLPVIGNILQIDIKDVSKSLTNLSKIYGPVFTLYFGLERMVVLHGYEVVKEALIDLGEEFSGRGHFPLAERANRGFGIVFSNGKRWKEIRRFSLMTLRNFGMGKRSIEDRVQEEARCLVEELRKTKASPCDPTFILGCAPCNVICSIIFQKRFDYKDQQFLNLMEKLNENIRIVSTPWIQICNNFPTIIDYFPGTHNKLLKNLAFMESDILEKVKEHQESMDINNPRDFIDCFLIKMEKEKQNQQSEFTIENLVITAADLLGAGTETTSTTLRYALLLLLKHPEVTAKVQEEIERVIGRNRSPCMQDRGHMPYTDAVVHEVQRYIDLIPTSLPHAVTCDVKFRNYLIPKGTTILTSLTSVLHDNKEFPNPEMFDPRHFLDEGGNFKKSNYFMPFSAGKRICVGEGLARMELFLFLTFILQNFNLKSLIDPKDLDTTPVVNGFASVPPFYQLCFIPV

COC(=O)[C@@]1(Cc2ccc(F)cc2)[C@H]2c3cc(C(=O)N4CCCC4)n(Cc4ccc(Cl)c(C(F)(F)F)c4)c3C[C@H]2CN1C(=O)c1ccccc1
AC50 (Cytochrome P450 2C19; read-out: AC50): 31.6 µM (inconclusive)

Cc1cc(N)n2ncc(-c3ccc(Cl)cc3)c2n1
AC50 (Cytochrome P450 2C9): 31.6 µM (inconclusive)

CC1=CC(C)(C)Nc2ccc(CSc3ccccc3)cc21
AC50 (Cytochrome P450 1A2): 0.501 µM (inconclusive)

COc1cc(OC)cc(C(=O)NC(=S)N2CCN(c3ccc(C(F)(F)F)cc3[N+](=O)[O-])CC2)c1
EC50 (Streptokinase A): > 150 µM (not active)
EC50 (Streptococcus): > 150 µM (not active)
EC50 [1]: 1.61 µM (active)

CCn1ccnc1CN(C)Cc1cn(-c2ccc(C)cc2)nc1-c1cccc(C)c1
EC50 [2]: 1.92 µM (active)
EC50 [3]: > 60 µM (not active)

CCc1ccc(Nc2n[n+](-c3ccccc3)c(-c3ccc(OCc4ccccc4)cc3)s2)cc1
EC50 [2]: 2.01 µM (active)
EC50 [3]: > 30 µM (not active)

COC(=O)c1[nH]c2cc(OC)ccc2c1NC(=O)CCN1CCSCC1
AC50 (Cytochrome P450 2C9): 22.4 µM (inconclusive)

O=C(NNC(=S)NC(=O)c1cccnc1)c1ccc(Cl)cc1
EC50 (Streptococcus): 11.4 µM (active)
EC50 [1]: 5.07 µM (active)

CCC(=O)OCN1C(=O)C=CC1=O
AC50 (Cytochrome P450 2C19; read-out: AC50): 0.002 µM (inconclusive)

COc1ccc(CNc2ccnc(-c3ccc(C(=O)N(C)C)cc3)n2)c(OC)c1
AC50 (Cytochrome P450 1A2): 12.6 µM (inconclusive)
AC50 (Cytochrome P450 2C19; read-out: AC50): 20 µM (inconclusive)

CCC1CCCCN1c1cc(C)nc2cc(-c3cccc(C)c3)nn12 (configuration not stated)
EC50 (Streptokinase A): 15.3 µM (active)
EC50 (Streptococcus): 13.7 µM (active)
EC50 [1]: 6.17 µM (active)

COc1ccc(N/C=C2/Sc3ccccc3NC2=O)cc1
EC50 [2]: 1.22 µM (active)
EC50 [3]: > 30 µM (not active)

Cc1cc(Br)ccc1OCCN1CCCC1
EC50 [2]: 0.651 µM (active)
EC50 [3]: 58.7 µM (active)

COc1cc2nc(S)n3nc(COc4ccccc4C)nc3c2cc1OC
EC50 (Streptokinase A): > 150 µM (not active)
EC50 (Streptococcus): 10.5 µM (active)
EC50 [1]: 4.21 µM (active)

O=C(NCC(c1cccs1)N1CCOCC1)c1ccco1 (configuration not stated)
AC50 (Cytochrome P450 2C9): 22.4 µM (inconclusive)

Cc1cc(C)n2nc(C(=O)NCc3cccc(C(F)(F)F)c3)nc2n1
EC50 [2]: > 60 µM (not active)
EC50 [3]: > 60 µM (inconclusive)

CC1CCN(CCCCOc2ccccc2[N+](=O)[O-])CC1
AC50 (Cytochrome P450 2C19; read-out: AC50): 15.8 µM (inconclusive)

COc1cc(-c2nnc(SCC3(c4ccc(Br)cc4)OCCO3)o2)cc(OC)c1OC
AC50 (Cytochrome P450 2C9): 39.8 µM (inconclusive)

CCOC(=O)C1CCCN(C(=O)c2cc3nc(-c4ccc5c(c4)OCO5)cc(C(F)(F)F)n3n2)C1 (configuration not stated)
AC50 (Cytochrome P450 1A2): 25.1 µM (inconclusive)

CCOC(=O)c1c(NC(=O)COC(=O)c2ccc(C)s2)sc2c1CC(C)(C)NC2(C)C
EC50 (Streptokinase A): > 150 µM (not active)
EC50 (Streptococcus): 26.8 µM (active)
EC50 [1]: 2.43 µM (active)

CC1C(=O)C(C)C(c2ccc([N+](=O)[O-])cc2)NC1c1ccc([N+](=O)[O-])cc1 (configuration not stated)
EC50 [2]: 0.632 µM (active)
EC50 [3]: > 30 µM (not active)

CC(C)CNc1nc(N)nc(O)c1NC=O
AC50 (Cytochrome P450 2C19): inconclusive

CC(=O)NC1(c2cccc(F)c2)CCN(CC(=O)NC(C)C)CC1
AC50 (Cytochrome P450 2C19; read-out: AC50): 39.8 µM (inconclusive)

Cc1[nH]c2ccc(F)cc2c1CCN(Cc1cccnc1)C(S)=NC(C)(C)C
EC50 [2]: 0.577 µM (active)
EC50 [3]: > 60 µM (not active)

Cc1nc2sccn2c(=O)c1Cl
AC50 (Cytochrome P450 1A2): 15.8 µM (inconclusive)

Cc1c(C(=O)OC(C)CCN(C)C)oc2ccccc12 (configuration not stated)
EC50 [2]: 0.574 µM (active)
EC50 [3]: > 30 µM (not active)

O=C(NNc1ccccc1Cl)C(O)(c1cccc(C(F)(F)F)c1)c1cccc(C(F)(F)F)c1
EC50 (Streptokinase A): 3.16 µM (active)
EC50 (Streptococcus): 17.4 µM (active)
EC50 [1]: 2.65 µM (active)

COCCNc1nc(-c2cccc(OC)c2)nc2ccccc12
AC50 (Cytochrome P450 2C19; read-out: AC50): 31.6 µM (inconclusive)

Cc1cccc(NC(=O)c2sc(Cl)nc2-c2ccccc2)c1
EC50 (Streptokinase A): > 150 µM (not active)
EC50 (Streptococcus): 19.3 µM (active)
EC50 [1]: 5 µM (active)

CCCN(CCO)Cc1ccc(F)c(Br)c1
AC50 (Cytochrome P450 2C9): 0.126 µM (inconclusive)
AC50 (Cytochrome P450 1A2): 15.8 µM (inconclusive)

CC(C)N1CCN(Cc2ccc3c(c2)Cc2ccccc2-3)CC1CCO (configuration not stated)
EC50 [2]: 0.532 µM (active)
EC50 [3]: 7.87 µM (active)

O=C(Oc1cccc(Br)c1)c1cccnc1
AC50 (Cytochrome P450 2C9): 39.8 µM (inconclusive)
AC50 (Cytochrome P450 2C19; read-out: AC50): 39.8 µM (inconclusive)

Clc1ccc2c(c1)C=Nc1c(NCc3ccccc3)ncnc1O2
AC50 (Cytochrome P450 1A2): 0.631 µM (inconclusive)

O=C(O)CSCNC(=O)CC12CC3CC(CC(C3)C1)C2
AC50 (Cytochrome P450 2C19; read-out: AC50): 28.2 µM (inconclusive)

C=C1CCC2C(C)(C)[C@@H](O)CC[C@@]2(C)[C@@H]1COc1ccc2ccc(=O)oc2c1 (some centres not stated)
EC50 (Streptokinase A): 6.72 µM (active)
EC50 (Streptococcus): > 150 µM (not active)
EC50 [1]: 9.27 µM (active)

Cc1cc(C)c(-c2csc(NC(=O)c3cc([N+](=O)[O-])ccc3N3CCOCC3)n2)c(C)c1
EC50 [2]: 1.44 µM (active)
EC50 [3]: > 30 µM (not active)

CNCCCCCCCCSc1nc(C(C)C)ccc1C(=O)c1cccs1
AC50 (Cytochrome P450 2C9): 25.1 µM (inconclusive)

Cn1cccc1C(=O)N1CCC[C@@]2(CCN(C(c3ccccc3)c3ccccc3)C2)C1
AC50 (Cytochrome P450 2C9): 39.8 µM (inconclusive)
AC50 (Cytochrome P450 2C19; read-out: AC50): 25.1 µM (inconclusive)

COc1ccc(-c2nc3cnc(Nc4ccccc4)nc3n(CCC#N)c2=O)cc1
AC50 (Cytochrome P450 1A2): 0.501 µM (inconclusive)

O=C(NCC1CCN(Cc2ccccc2Cl)CC1)Nc1cccc(Cl)c1
EC50 (Streptokinase A): 49.3 µM (active)
EC50 (Streptococcus): > 150 µM (not active)
EC50 [1]: > 150 µM (not active)

COc1ccccc1Nc1nc(N)nc(CSC(=S)N2CCN(c3ccccc3)CC2)n1
EC50 [2]: 2.57 µM (active)
EC50 [3]: > 60 µM (not active)

FC(F)(F)c1cccc(NC(S)=NN=C(S)Nc2cccc(C(F)(F)F)c2)c1
EC50 (Streptococcus): 4.04 µM (active)
EC50 [1]: 1.65 µM (active)

COc1cc2c(cc1OC)CN(C(=O)COc1ccc(C)c(C)c1)CC2
EC50 [2]: 2.93 µM (active)
EC50 [3]: > 60 µM (not active)

NC[C@@H](O)CSCc1ccc(Cl)cc1
AC50 (Cytochrome P450 2C19; read-out: AC50): 0.1 µM (inconclusive)

CC(C)(CN1CCN(C(c2ccccc2)c2ccccc2)CC1)NS(=O)(=O)c1ccccc1
EC50 [2]: 1.7 µM (active)
EC50 [3]: > 60 µM (not active)

Cc1ccccc1OCCn1cnc2cc([N+](=O)[O-])ccc2c1=O
EC50 [2]: 0.615 µM (active)
EC50 [3]: > 30 µM (not active)

O=C(NCCc1c[nH]c2ccccc12)[C@@H]1C[C@H]1[C@@H](NP(=O)(c1ccccc1)c1ccccc1)c1ccccc1
AC50 (Cytochrome P450 1A2): 15.8 µM (inconclusive)

Cc1cc2c(=O)n(Cc3ccco3)c(SCC(=O)N3CCCc4ccccc43)nc2s1
EC50 (Streptokinase A): 31.8 µM (active)
EC50 (Streptococcus): > 150 µM (not active)
EC50 [1]: 20.4 µM (active)

COc1cccc(Cn2c(=O)c(C)nc3cnc(Oc4cccc(Cl)c4)nc32)c1
AC50 (Cytochrome P450 1A2): 25.1 µM (inconclusive)

Cc1cc(N)n(-c2ccccc2)n1
AC50 (Cytochrome P450 1A2): 31.6 µM (inconclusive)
AC50 (Cytochrome P450 2C19; read-out: AC50): 2.24 µM (inconclusive)

COCCn1c(C)cc(C2=NN=C(Nc3ccc(F)cc3)SC2)c1C
AC50 (Cytochrome P450 1A2): 11.2 µM (inconclusive)

CC(=O)Nc1ccc(NC(=O)CSc2nnc(-c3ccccc3)n2Cc2ccc3c(c2)OCO3)cc1
AC50 (Cytochrome P450 1A2): 31.6 µM (inconclusive)

C[N+](C)(CCCCCC[N+](C)(C)CCCN1C(=O)c2ccccc2C1=O)CCCN1C(=O)c2ccccc2C1=O
AC50 (Cytochrome P450 1A2): 31.6 µM (inconclusive)
AC50 (Cytochrome P450 2C19; read-out: AC50): 31.6 µM (inconclusive)

CSc1ccccc1NC(=S)N/N=C/c1cccn1Cc1cccc(C)c1
EC50 [2]: 2.35 µM (active)
EC50 [3]: > 60 µM (not active)

O=C(O)c1ccc(N/N=C/c2ccc(-c3ccc(Br)cc3)o2)cc1
EC50 (Streptococcus): 3.02 µM (active)
EC50 [1]: 4.26 µM (active)

Oc1ccc(Br)cc1/C=N/Nc1ncc(-c2ccccc2)cn1
EC50 (Streptococcus): 2.68 µM (active)
EC50 [1]: 1.51 µM (active)

Cc1cc(Cl)ccc1OCC(=O)N/N=C1\CCCc2ccccc21
AC50 (Cytochrome P450 2C9): 3.55 µM (inconclusive)
AC50 (Cytochrome P450 1A2): 2.51 µM (inconclusive)

CC(CC(=O)O)(CC(=O)O)c1ccccc1
AC50 (Cytochrome P450 2C19): inconclusive
